Literature values as cited in publication PMC3800486 (Amino acids, 2013).

Tested on: polo-like kinase 1 (Plk1) polo box domain (PBD)
Conditions: previously shown; ref Yun et al. 2009; Liu et al. 2011; Liu et al. 2012b, a

## Ac-Pro-Leu-His-Ser-Pmab-amide
  affinity for the Plk1 PBD (in words): good affinity
